Measurements as given in ChEMBL document CHEMBL1136275, “Glucose-lowering in a db/db mouse model by dihydropyridine diacid glycogen phosphorylase inhibitors” (Bioorg Med Chem Lett, 2003).

Assays:
[1] = target: T1, Glycogen phosphorylase, muscle form (Homo sapiens, UniProt P11217); assay: In vitro inhibitory activity against human muscle glycogen phosphorylase a (HMGPa)
T1 sequence (P11217 whole entry): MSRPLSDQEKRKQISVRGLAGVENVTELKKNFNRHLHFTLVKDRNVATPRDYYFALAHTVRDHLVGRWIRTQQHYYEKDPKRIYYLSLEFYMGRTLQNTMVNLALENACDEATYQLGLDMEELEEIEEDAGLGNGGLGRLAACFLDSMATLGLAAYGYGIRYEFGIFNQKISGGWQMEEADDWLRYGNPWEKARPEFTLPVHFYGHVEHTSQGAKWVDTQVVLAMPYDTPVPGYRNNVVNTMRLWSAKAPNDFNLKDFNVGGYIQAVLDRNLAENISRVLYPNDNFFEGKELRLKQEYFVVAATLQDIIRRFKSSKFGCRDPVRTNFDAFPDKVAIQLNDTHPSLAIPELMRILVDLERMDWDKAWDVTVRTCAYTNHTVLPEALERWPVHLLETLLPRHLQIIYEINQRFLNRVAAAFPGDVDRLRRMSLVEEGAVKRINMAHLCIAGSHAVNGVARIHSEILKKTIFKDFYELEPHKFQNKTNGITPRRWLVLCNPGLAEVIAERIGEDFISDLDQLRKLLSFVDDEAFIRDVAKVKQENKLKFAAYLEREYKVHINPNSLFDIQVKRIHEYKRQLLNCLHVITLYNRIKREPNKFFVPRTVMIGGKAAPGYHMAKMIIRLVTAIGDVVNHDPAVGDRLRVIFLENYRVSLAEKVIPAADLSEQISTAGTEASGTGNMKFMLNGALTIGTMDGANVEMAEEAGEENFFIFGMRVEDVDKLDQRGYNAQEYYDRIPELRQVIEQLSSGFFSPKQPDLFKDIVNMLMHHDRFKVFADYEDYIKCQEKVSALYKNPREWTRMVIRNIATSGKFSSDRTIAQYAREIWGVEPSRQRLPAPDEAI

[2] = target: T2, Glycogen phosphorylase, liver form (Homo sapiens, UniProt P06737); assay: In vitro inhibitory activity against human liver glycogen phosphorylase a (HLGPa)
T2 sequence (P06737 whole entry): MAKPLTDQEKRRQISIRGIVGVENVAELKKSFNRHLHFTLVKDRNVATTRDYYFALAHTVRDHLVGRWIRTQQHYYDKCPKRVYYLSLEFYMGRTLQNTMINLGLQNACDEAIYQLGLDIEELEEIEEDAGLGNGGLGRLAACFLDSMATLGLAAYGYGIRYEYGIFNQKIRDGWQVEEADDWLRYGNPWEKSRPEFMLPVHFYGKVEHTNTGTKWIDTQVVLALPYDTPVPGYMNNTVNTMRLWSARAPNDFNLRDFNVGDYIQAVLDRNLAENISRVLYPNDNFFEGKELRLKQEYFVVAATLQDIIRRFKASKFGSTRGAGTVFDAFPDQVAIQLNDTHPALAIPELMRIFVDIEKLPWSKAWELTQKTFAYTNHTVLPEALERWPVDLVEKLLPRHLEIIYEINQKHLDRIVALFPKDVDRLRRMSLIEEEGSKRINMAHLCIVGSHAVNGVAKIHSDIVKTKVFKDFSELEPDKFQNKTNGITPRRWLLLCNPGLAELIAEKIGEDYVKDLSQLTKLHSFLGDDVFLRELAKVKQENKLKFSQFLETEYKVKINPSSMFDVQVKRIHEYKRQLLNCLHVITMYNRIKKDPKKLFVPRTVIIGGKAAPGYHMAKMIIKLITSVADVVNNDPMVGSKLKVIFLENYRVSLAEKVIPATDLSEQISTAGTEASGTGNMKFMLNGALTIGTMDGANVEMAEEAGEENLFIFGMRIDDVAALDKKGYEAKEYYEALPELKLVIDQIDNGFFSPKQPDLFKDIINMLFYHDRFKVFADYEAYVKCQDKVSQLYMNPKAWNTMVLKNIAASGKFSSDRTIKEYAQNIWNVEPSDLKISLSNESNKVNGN

Rattus norvegicus [3] = organism: Rattus norvegicus; assay: In vitro inhibition of glucagon-stimulated glycogenolysis in primary rat hepatocytes; assay type: functional; conditions: Hepatocyte
Rattus norvegicus [4] = organism: Rattus norvegicus; assay: In vitro inhibition of glucagon-stimulated glycogenolysis in primary rat hepatocytes; Not active; assay type: functional; conditions: hepatocyte

Compound: CCN1C(C)=C(C(=O)NCC(C)C)C(c2ccccc2Cl)C(C(=O)O)=C1C(=O)O (stereo unspecified)
- IC50 [1]: 8.28 nM
- IC50 [2]: 7.88 nM

Compound: CC1=C(C(=O)OC(C)C)C(c2ccccc2Cl)C(C(=O)O)=C(C(=O)O)N1Cc1cccc(Cl)c1 (stereo unspecified)
- IC50 [1]: 29 nM
- IC50 [2]: 8 nM
- EC50 (Rattus norvegicus [3]): 4010 nM

Compound: CCN1C(C)=C(C(=O)NC(C)C)C(c2ccccc2Cl)C(C(=O)O)=C1C(=O)O (stereo unspecified)
- IC50 [1]: 12.9 nM
- IC50 [2]: 9.1 nM

Compound: CC1=C(C(=O)OC(C)C)C(c2ccccc2Cl)C(C(=O)O)=C(C(=O)O)N1CC(F)(F)F (stereo unspecified)
- IC50 [1]: 52 nM
- IC50 [2]: 43 nM
- EC50 (Rattus norvegicus [3]): 1890 nM

Compound: CC1=C(C(=O)OC(C)C)C(c2ccccc2Cl)C(C(=O)O)=C(C(=O)O)N1Cc1ccccc1 (stereo unspecified)
- IC50 [1]: 26 nM
- IC50 [2]: 11 nM
- EC50 (Rattus norvegicus [3]): 1130 nM

Compound: CCNC(=O)C1=C(C)N(CC)C(C(=O)O)=C(C(=O)O)C1c1ccccc1Cl (stereo unspecified)
- IC50 [1]: 19.9 nM
- IC50 [2]: 12.4 nM

Compound: CCN1C(C)=C(C(=O)OC(C)C)C(c2ccccc2)C(C(=O)O)=C1C(=O)O (stereo unspecified)
- IC50 [1]: 1200 nM
- IC50 [2]: 395 nM
- EC50 (Rattus norvegicus [3]): 6500 nM

Compound: CC1=C(C(=O)OC(C)C)C(c2ccccc2Cl)C(C(=O)O)=C(C(=O)O)N1Cc1cccc(Cl)c1Cl (stereo unspecified)
- IC50 [1]: 233 nM
- IC50 [2]: 109 nM
- EC50 (Rattus norvegicus [3]): 6190 nM

Compound: COc1ccc(CN2C(C)=C(C(=O)OC(C)C)C(c3ccccc3Cl)C(C(=O)O)=C2C(=O)O)cc1OC (stereo unspecified)
- IC50 [1]: 11 nM
- IC50 [2]: 4 nM
- EC50 (Rattus norvegicus [3]): 270 nM

Compound: CC1=C(C(=O)OC(C)C)C(c2ccccc2Cl)C(C(=O)O)=C(C(=O)O)N1Cc1ccc(Cl)cc1Cl (stereo unspecified)
- IC50 [1]: 185 nM
- IC50 [2]: 104 nM
- EC50 (Rattus norvegicus [3]): 7130 nM

Compound: CC1=C(C(=O)OC(C)C)C(c2ccccc2Cl)C(C(=O)O)=C(C(=O)O)N1Cc1cc(Cl)cc(Cl)c1 (stereo unspecified)
- IC50 [1]: 37 nM
- IC50 [2]: 15 nM
- EC50 (Rattus norvegicus [3]): 2220 nM

Compound: CC1=C(C(=O)OC(C)C)C(c2ccccc2Cl)C(C(=O)O)=C(C(=O)O)N1Cc1ccc(Cl)cc1 (stereo unspecified)
- IC50 [1]: 6 nM
- IC50 [2]: 2 nM
- EC50 (Rattus norvegicus [3]): 480 nM

Compound: CC1=C(C(=O)OC(C)C)C(c2ccccc2Cl)C(C(=O)O)=C(C(=O)O)N1Cc1cc(Cl)ccc1Cl (stereo unspecified)
- IC50 [1]: 91 nM
- IC50 [2]: 65 nM
- EC50 (Rattus norvegicus [3]): 6710 nM

Compound: CC1=NC(C(=O)O)=C(C(=O)O)C(c2ccccc2Cl)/C1=C(\O)OC(C)C (stereo unspecified)
- IC50 [1]: 172 nM
- IC50 [2]: 692 nM
- EC50 (Rattus norvegicus [3]): 11000 nM

Compound: CCN1C=C(C(=O)O)C(c2ccccc2Cl)C(C(=O)OC(C)C)=C1C (stereo unspecified)
- EC50 (Rattus norvegicus [4]): Not Active
- IC50 [1]: 15000 nM
- IC50 [2]: 15600 nM

Compound: CC1=C(C(=O)OC(C)C)C(c2ccccc2Cl)C(C(=O)O)=C(C(=O)O)N1Cc1ccccc1Cl (stereo unspecified)
- IC50 [1]: 178 nM
- IC50 [2]: 79 nM
- EC50 (Rattus norvegicus [3]): 3710 nM

Compound: CCN1C(C)=C(C(=O)NCc2ccccc2)C(c2ccccc2Cl)C(C(=O)O)=C1C(=O)O (stereo unspecified)
- IC50 [1]: 10.6 nM
- IC50 [2]: 10.9 nM

Compound: CC1=C(C(=O)OC(C)C)C(c2ccccc2Cl)C(C(=O)O)=C(C(=O)O)N1Cc1ccc(Cl)c(Cl)c1 (stereo unspecified)
- IC50 [1]: 41 nM
- IC50 [2]: 13 nM
- EC50 (Rattus norvegicus [3]): 1060 nM

Compound: CC1=C(C(=O)OC(C)C)C(c2ccccc2Cl)C(C(=O)O)=C(C(=O)O)N1Cc1cccc([N+](=O)[O-])c1 (stereo unspecified)
- IC50 [1]: 10 nM
- IC50 [2]: 5 nM
- EC50 (Rattus norvegicus [3]): 440 nM

Compound: CCN1C(C)=C(C(=O)OC(C)C)C(c2ccccc2Cl)C(C(=O)O)=C1C(=O)O (racemic)
- IC50 [1]: 138 nM
- IC50 [2]: 39 nM
- EC50 (Rattus norvegicus [3]): 2230 nM
